# Values of other authors, collected in patent US9339460B2, “Self-emulsifiable liquid florfenicol composition intended to be incorporated into the drinking water of livestock” (VIRBAC SA, priority 2007, dated 2016).
# Conditions: in water
structure (smiles),measurement,value
CS(=O)(=O)c1ccc([C@@H](O)[C@@H](CF)NC(=O)C(Cl)Cl)cc1 [Florfenicol],"""miscibility"" of Florfenicol",12 g/L
